A word on the IC50: it is the concentration that inhibits the measured activity by half.

SMILES strings stand for the structures. Values after ≈ are worked out from the molar mass of the structure shown. Where only a bound is given, the exact number is not on record here.

System in one data set: not listed separately
Nature of the data set: Cytotoxicity against African green monkey Vero cells assessed as reduction in cell viability by MTT assay. It is filed as toxicity, cell-based. The note with it: African green monkey (Chlorocebus sabaeus). A general note: Formazan colour is commonly taken as a measure of viable cells.
On to `CC1=CC[C@H]2[C@H]3[C@@H]1[C@]2(C)CC[C@H]3C(C)C`, for which the IC50 was 9.94 µg/mL (≈ 48.6 µM).

As for `CC(C)=CCC/C(C)=C/C=O` [CITRAL], the IC50 stood at 9 µg/mL (≈ 59.1 µM).

Take `COC(=O)/C=C(\C)CCC=C(C)C`: the IC50 worked out at 9 µg/mL (≈ 49.4 µM).

Take `C=CCSSSCC=C` [ALLITRIDIN]: the IC50 came to 28 µg/mL (≈ 157 µM).

In the case of `C=CCSSSC`, the 50% inhibitory concentration (IC50) was 66 µg/mL (≈ 433 µM).

Regarding `C=CCSSCC=C` [DIALLYLDISULFIDE], the IC50 is 66.9 µg/mL (≈ 457 µM).

System in a further data set: not listed separately
Nature of the data set: Inhibition of Toxoplasma gondii Farnesyl pyrophosphate synthase.
Settings: not given
On to `CC[C@]1(C)NC(=O)[C@H](CCCCCC(=O)[C@@H](C)OC(C)=O)NC(=O)[C@H]2C[C@H](C)CN2C(=O)[C@H](Cc2ccccc2)NC1=O`, for which the IC50 was 0.0102 µM. Still for that read-out and setting: the result for `COc1cccc(CC(=O)Nc2ccc(C(=O)NO)cc2)c1` reads 0.56 µM; that for `CC[C@]1(C)NC(=O)[C@H](CCCCCC(=O)[C@@H](C)OC(=O)Oc2ccccc2)NC(=O)[C@H]2C[C@H](C)CN2C(=O)[C@H](Cc2ccccc2)NC1=O`, 0.0113 µM.

Turning to `CCCCCCNCC(O)(P(=O)(O)O)P(=O)(O)O`, half-maximal inhibition (IC50) required 4.7 µM. The same measure, in the same setting: the result for `CCCCCCCCCCS(=O)(=O)CC(P(=O)(O)O)P(=O)(O)O` reads 0.11 µM. Take `O=C(CCCCSc1nc(-c2ccc(-c3ccccc3)cc2)cc(=O)[nH]1)NO`: 0.034 µM corresponded to half-maximal inhibition (IC50).

Another data set relates to Toxoplasma gondii. Nature of the data set: Antiparasitic activity against Toxoplasma gondii.
Settings: not given
It is filed as functional, organism-based.
Turning to `NC(=S)N/N=C(/COc1ccc(F)cc1)c1ccc(Cl)cc1`, inhibition was half-maximal at 1.19 µM (IC50). On to `COc1ccc(/C(COc2ccc(F)cc2)=N\NC(N)=S)cc1`, for which the IC50 turned out to be 1.09 µM.

In a further data set the test system is Toxoplasma gondii. Nature of the data set: Antiparasitic activity against Toxoplasma gondii RH infected in human HFF cells. It is filed as functional, organism-based.
Settings: not given
Regarding `Fc1ccc(-c2csc(N/N=C/C3CC3)n2)cc1`, half-maximal inhibition (IC50) was put at 18.1 µg/mL (≈ 69.2 µM).

The test system of a further data set is Toxoplasma gondii. The data set can be described thus: Antiparasitic activity against Toxoplasma gondii RH infected in human HFF cells assessed as reduction in parasitic growth. Type of data set: functional, organism-based.
Settings: not given
For `Cn1cc(-c2ccc3c(c2)CCN3C(=O)Cc2cccc(C(F)(F)F)c2)c2c(N)ncnc21`, the IC50 is less than 1 µM.

For the compound `N=C(N)N/N=C/c1c(Cl)cccc1Cl` [GUANABENZ], the IC50 was 6 µM.

For another data set, the system named is Toxoplasma gondii. The data set can be described thus: Antiparasitic activity against Toxoplasma gondii RH tachyzoites infected in human HFF cells assessed as parasitic growth inhibition.
Settings: not given
Type of data set: functional, organism-based.
As to `O=C1CCC[C@@H]2[C@H]3CCCN4CCC[C@@H](CN12)[C@@H]34` [MATRINE], the IC50 is 1010 µM. `C=CCC1[C@H](O[Si](C)(C)C(C)(C)C)C[C@@H](C(=O)OC)N1C(=O)OC(C)(C)C` (some centres not stated): the IC50 is 3.9 µM. Same read-out and setting: with `O=C1CCC[C@@H]2[C@H]3CCC[N+]4([O-])CCC[C@@H](CN12)[C@@H]34` (some centres not stated) [OXYMATRINE] the figure was 843 µM; with `CC(C)(C)[Si](C)(C)O[C@@H]1C[C@@H](/C=C\I)N2CCCC[C@]12C`, 3.9 µM. Take `C=CCC1[C@H](O[Si](C)(C)C(C)(C)C)C[C@@H](C(=O)OC)N1CC=C` (some centres not stated): the IC50 is 5.6 µM. On to `O=C1C=C2C=C[C@@H]3C[C@@]2(O1)[C@H]1CCCCN31` [SECURININE], for which the IC50 was 9.8 µM.

For the compound `COc1ccc2c3ccnc(C)c3n(C)c2c1`, the IC50 worked out at 1.8 µM. With `O=c1c2ccc(Oc3ccc(OC(F)(F)F)cc3)cc2[nH]c2cc(Cl)cc(F)c12`, the IC50 stood at 0.03 µM.

System in a further data set: not listed separately
The data set can be described thus: Cytotoxicity against African green monkey Vero cells by MTT assay. Type of data set: toxicity, cell-based. The note with it: African green monkey (Chlorocebus sabaeus).
On to `Fc1ccc(-c2csc(N/N=C/C3CC3)n2)cc1`, for which the midpoint of inhibition, the IC50, lay at 18 µg/mL. Consider `C/C(=N\Nc1nc(-c2ccc(Cl)c(Cl)c2)cs1)c1ccc(Nc2nc(N)nc(N)n2)cc1`, for which the IC50 is 14.9 µg/mL. With `NC(=S)N/N=C(/COc1ccc(F)cc1)c1ccc(Cl)cc1`, the IC50 came to 1.19 µM.

`COc1ccc(/C(COc2ccc(F)cc2)=N\NC(N)=S)cc1` showed an IC50 of 1.09 µM.

The next data set addresses T1, Bifunctional dihydrofolate reductase-thymidylate synthase (Toxoplasma gondii, UniProt Q07422).
T1 sequence (Q07422 whole entry): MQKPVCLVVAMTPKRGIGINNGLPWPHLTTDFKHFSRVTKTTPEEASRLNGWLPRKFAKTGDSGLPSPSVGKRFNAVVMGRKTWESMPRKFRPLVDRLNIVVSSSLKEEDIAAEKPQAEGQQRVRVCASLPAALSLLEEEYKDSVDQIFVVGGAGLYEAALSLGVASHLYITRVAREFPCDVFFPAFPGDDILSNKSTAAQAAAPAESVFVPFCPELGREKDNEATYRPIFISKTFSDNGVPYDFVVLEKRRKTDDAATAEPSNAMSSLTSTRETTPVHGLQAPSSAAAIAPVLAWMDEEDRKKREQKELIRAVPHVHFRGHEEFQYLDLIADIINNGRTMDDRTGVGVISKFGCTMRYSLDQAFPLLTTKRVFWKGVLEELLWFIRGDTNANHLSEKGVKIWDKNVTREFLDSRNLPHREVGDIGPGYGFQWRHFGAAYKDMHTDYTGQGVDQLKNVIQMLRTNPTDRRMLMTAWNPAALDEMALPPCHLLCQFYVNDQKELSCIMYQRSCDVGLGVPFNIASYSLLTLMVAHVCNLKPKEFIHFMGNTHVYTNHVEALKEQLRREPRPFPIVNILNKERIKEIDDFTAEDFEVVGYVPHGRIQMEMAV
Nature of the data set: Inhibition of Toxoplasma gondii thymidylate synthase.
Settings: not given
In turn, `C[C@H]1[C@H](N2CCSCC2)O[C@@H]2O[C@@]3(C)CC[C@H]4[C@H](C)CC[C@@H]1[C@@]24OO3` [ARTEMISIDE] showed an IC50 of 0.1 µM. Compound `C[C@H](NC(=O)OC(C)(C)C)C(=O)OC1O[C@@H]2O[C@@]3(C)CC[C@H]4[C@H](C)CC[C@@H]([C@H]1C)[C@@]24OO3` (some centres not stated) gave an IC50 of 41 µM.

Turning to `C[C@H]1[C@H](N2CCS(=O)(=O)CC2)O[C@@H]2O[C@@]3(C)CC[C@H]4[C@H](C)CC[C@@H]1[C@@]24OO3` [ARTEMIFONE], the IC50 was determined as 0.12 µM.

The values above are taken from ChEMBL document CHEMBL6078659, “Comprehensive Insights into the Development of Antitoxoplasmosis Drugs: Current Advances, Obstacles, and Future Perspectives” (J Med Chem, 2024).
